Assay results taken from publication PMC8071358, “Targeting of the Essential acpP, ftsZ, and rne Genes in Carbapenem-Resistant Acinetobacter baumannii by Antisense PNA Precision Antibacterials” (Biomedicines, 2021).

Assays:
Format in all cases: cell-based, Acinetobacter baumannii
[1] = test system: acpP mRNA in CRAB AC44 strain; assay: Real-time RT-PCR of target mRNA; settings: AC44, 1 h treatment, normalised to 16S rRNA, against untreated control
Description: (§1) Real time RT-PCR was used to determine the relative expression level of the target gene upon treatment with match BPP-PNA compared to mismatch and untreated controls. The primers for q-PCR were designed to match conserved gene sequences using the AlleleID7 software (Premier Biosoft, San Francisco, CA, USA) (Table S6). Additionally, for more accurate expression of the genes at treatment and untreated conditions, the efficacy of target gene and internal controls primers was calculated by using three consecutive dilutions of the sample cDNA and drawing a standard curve through the slope of the line. […] Statistical analysis was carried out on the gene expression levels normalized to the chosen reference gene (16S rRNA) through −∆Ct analysis. The relative expression of each gene was determined by the 2^−ΔΔCT method. We used the GenEx standard (NormFinder and GeNorm) software (bioMCC, Germany) for analyzing the data.
(§2) An overnight culture of bacteria was diluted 1:100 in MHB medium and was grown with shaking (160 rpm) at 37 °C to reach the OD595 = 0.2. Then, the bacterial culture was treated with different concentrations of BPP-PNA for 1 h and the bacterial cells were harvested by centrifugation and the cell pellet used for RNA extraction.
(§3) Total RNA was isolated using the GeneJET RNA purification kit (ThermoFisher Scientific, Roskilde, Denmark) following the manufacturer’s protocol. RNA samples were treated with DNase for 30 min at 37 °C (Turbo DNA-free kit Ambion/Applied Biosystems, Carlsbad, CA, USA) and then incubated at 72 °C for 5 min to inactivate the DNase. The genomic DNA (gDNA) contamination was checked by polymerase chain reaction (PCR). RNA concentrations were determined by Nanodrop spectrophotometry at 260 nm and purity was checked by determining the absorption ratios at 260/280 nm. Total RNA (0.5 μg) was reverse-transcribed to yield cDNA as template for real-time quantitative PCR using the Quanti Tect reverse transcription kit (Qiagen, Copenhagen, Denmark). The cDNA was diluted 1:50 and used as a template in the reaction. […]

[2] = test system: CRAB strain AC5; assay: BPP-PNA MIC, broth microdilution; settings: MHB without cation (Oxoid); 37 °C, 18 h
In short: (§4)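 Non-cation-adjusted MHB, inoculum ~5 × 10^5 CFU/mL; BPP-PNA 2-fold series prepared at 16–0.5 µM before addition to wells. 37 °C, 18 h, linear shaking, OD 595 nm every 20 min. ≥2 biological × 2 technical replicates.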

[3] = test system: CRAB strain AC3; assay: BPP-PNA MIC, broth microdilution; settings: MHB without cation (Oxoid); 37 °C, 18 h
In short: as §4

[4] = test system: CRAB strain AC9; assay: BPP-PNA MIC, broth microdilution; settings: MHB without cation (Oxoid); 37 °C, 18 h
In short: as §4

[5] = test system: CRAB strain AC1; assay: BPP-PNA MIC, broth microdilution; settings: MHB without cation (Oxoid); 37 °C, 18 h
In short: as §4

[6] = test system: CRAB strain AC4; assay: BPP-PNA MIC, broth microdilution; settings: MHB without cation (Oxoid); 37 °C, 18 h
In short: as §4

[7] = test system: CRAB strain AC7; assay: BPP-PNA MIC, broth microdilution; settings: MHB without cation (Oxoid); 37 °C, 18 h
In short: as §4

[8] = test system: CRAB strain AC8; assay: BPP-PNA MIC, broth microdilution; settings: MHB without cation (Oxoid); 37 °C, 18 h
In short: as §4

[9] = test system: CRAB strain AC6; assay: BPP-PNA MIC, broth microdilution; settings: MHB without cation (Oxoid); 37 °C, 18 h
In short: as §4

[10] = test system: ftsZ mRNA in CRAB AC44 strain; assay: Real-time RT-PCR of target mRNA; settings: AC44, 1 h after treatment, normalised to 16S rRNA, against untreated control
Description: as §1, §2, §3

Substance: H-(KFF)3K-eg1-TGATTTGCCAC-NH2 (antisense; N-terminal (KFF)3K-eg1 peptide, C-terminal amide, backbone not given here, further chemistry not given here) [PNA 5639, anti-acpP peptide-PNA conjugate, match, +1 to +11]
- reduction in the level of the acpP mRNA [1]: > 34 fold

Substance: H-(KFF)3K-eg1-GAGGCCATGAC-NH2 (antisense; N-terminal (KFF)3K-eg1 peptide, C-terminal amide, backbone not given here, further chemistry not given here) [PNA 5612, anti-ftsZ peptide-PNA conjugate, match, −3 to +8]
- MIC, AC5 [2]: 4 µM
- MIC, AC3 [3]: 4 µM
- MIC, AC9 [4]: 2 µM
- MIC, AC1 [5]: 4 µM
- MIC, AC4 [6]: 8 µM
- MIC, AC7 [7]: 4 µM
- MIC, AC8 [8]: 8 µM
- MIC, AC6 [9]: 4 µM
- reduction in ftsZ mRNA [10]: up to 60%
